Read-outs that look alike come from different tables or passages of the source.
Key:
[1] = set-up: method as in ref 22 = [22]; 22 Meng X , Donazzolo Y , Kim B , Kim K . 2022 . The first-in-human clinical trial of STP0404, a novel potent HIV-1 allosteric integrase inhibitor . Poster PESUB2624th AIDS Conference , Montreal, Cana; conditions: cited from earlier work
[2] = test system: HIV-1 strains resistant to INSTIs, NRTIs, NNRTIs or PIs; format: cell-based
Procedure, shortened: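 NL4-3-based recombinant mutants and drug-resistant clinical isolates; exponentially growing MT4 cells (10^6/mL) infected at MOI 0.001 for 2 h with compound at varying concentrations. Protection quantified as cell viability by CellTiter-Glo luminescence.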

[3] = test system: primary HIV-1 isolates with polymorphisms at IN positions 124 and 125; assay: Multiple-round infection of MT4 cells with primary HIV-1 isolates polymorphic at IN positions 124 and 125; format: cell-based; conditions: primary isolate
Procedure, shortened: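 Exponentially growing MT4 cells at 10^6/mL infected for 2 h at MOI 0.001 in the presence of varying compound concentrations. Cell viability quantified by CellTiter-Glo luminescence.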

[4] = test system: NL4-3 HIV-1 strain; assay: Multiple-round infection assay in MT4 cells, NL4-3; format: cell-based; conditions: MT4 cells
[5] = test system: recombinant NL4-3 viruses with polymorphisms at IN positions 124 and 125; assay: Multiple-round infection of MT4 cells with recombinant NL4-3 viruses polymorphic at IN positions 124 and 125; format: cell-based, HIV-1
Procedure, shortened: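 MT4 cells (10^6/mL) infected with NL4-3 carrying IN 124/125 polymorphisms (15 combinations) at MOI 0.001 for 2 h with compound present. Viability read by CellTiter-Glo luminescence; EC50 expressed as fold change versus wild-type NL4-3 (Thr124/Thr125).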

[6] = test system: NL4-3 HIV-1 with INLAI-selected IN single point mutations; format: cell-based
[7] = test system: lab-adapted and clinical HIV-1 isolates; assay: Infection assays in primary T CD4+ lymphocytes; format: cell-based; conditions: Human immunodeficiency virus 1, Lymphocyte
[8] = molecular target: CCD of HIV-1 IN and IBD of LEDGF/p75 (Human immunodeficiency virus type 1 group M subtype B, UniProt P12497); assay: biochemical
[9] = molecular target: T1, HIV-1 IN (Human immunodeficiency virus type 1 group M subtype B, UniProt P12497); assay: HTRF IN multimerization assay; format: biochemical; conditions: mean ± SD
T1 construct: made in house
Source text: A key property of INLAIs is the ability to promote HIV-1 IN homo-multimerization ([39][–][42]). […] The maximal signal (plateau) in our IN aggregation assay corresponds to the highest HTRF signal increase under saturating INLAI concentration, relative to baseline level. Thus, MUT916, MUT884, MUT871, and MUT872 increased HIV-1 IN aggregation 3.7 to 4.4-fold, while BDM-2, BI-224436, and S-I-82 did so 5 to 6-fold (Table 1).

[10] = Cytotoxicity assay in MT4 cells; format: cell-based; conditions: human, MT4 cells (proliferating human T-cell line), CellTiter-Glo
Source text: Growth inhibition was monitored in a proliferating human T-cell line (MT4) with different concentrations of compounds, using the CellTiter-Glo luminescent reagent (Promega), as previously described ([12]).

[11] = molecular target: HIV-1 IN-LEDGF/p75 interaction (Human immunodeficiency virus type 1 group M subtype B, UniProt P12497); assay: biochemical
[12] = test system: HXB2 HIV-1 strain; assay: Multiple-round infection assay in MT4 cells, HXB2; format: cell-based; conditions: Human immunodeficiency virus 1, HXB2; multiple-round infection, MT4 cells; mean ± SD, n > 5; read-out: EC50 HXB2
Procedure, shortened: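 MT4 cells at 10^6/mL were infected with HIV-1 at MOI 0.001 for 2 h in the presence of compound dilutions. Cell viability, measured by CellTiter-Glo luminescence, served as the read-out of protection in this multiple-round infection.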

[13] = test system: VSV-G-pseudotyped NL4-3Δenv-luc; assay: microbe, parasite or virus in culture; format: cell-based, HIV-1
[14] = set-up: method as in ref 47 = [47]; 47 Mitchell M , Balakrishnan M , Brizgys G , Cai R , Lansdon E , Mulato A , Osier M , Wang J , Yu H , Sakowicz R . 2017 . Novel non-catalytic site integrase inhibitor with improved resistance profile.; conditions: precluded further clinical investigation; cited from earlier work
[15] = INSTI-resistant, NL4-3 background

## Cc1nc2c(c(C)c(C)n2Cc2cnn(C)c2)c(-c2ccc(Cl)cc2)c1[C@H](OC(C)(C)C)C(=O)O [STP0404, Pirmitegravir]
[1]
  tolerability in clinical phase I study: Well tolerated

## Cc1ccc(C2CC2)c(-c2ccc3c(c2C)CCCO3)c1[C@H](OC1CC1)C(=O)O [MUT884]
[2]; [15]
  Fold change in EC50 relative to NL4-3, E92Q: 1
  Fold change in EC50 relative to NL4-3, G140S: 1
  Fold change in EC50 relative to NL4-3, G140S/Q148H: 1
  Fold change in EC50 relative to NL4-3, N155H: 1
  Fold change in EC50 relative to NL4-3, Q148H: 1
  Fold change in EC50 relative to NL4-3, Y143R: 0.5
[2]; NRTI-resistant clone
  Fold change in EC50 relative to NL4-3, NLAY351717: 1
[2]; NRTI/NNRTI-resistant clone
  Fold change in EC50 relative to NL4-3, NLAY351753: 1
[2]; NRTI/NNRTIs group, NL4-3 background
  Fold change in EC50 relative to NL4-3, K103N/Y181C: 1
[2]; PI-resistant virus
  Fold change in EC50 relative to NL4-3, ARP-4595: 1
  Fold change in EC50 relative to NL4-3, ARP-4596: 1
  Fold change in EC50 relative to NL4-3, ARP-11801: 3
  Fold change in EC50 relative to NL4-3, ARP-11803: 2
  Fold change in EC50 relative to NL4-3, ARP-11807: 1
  Fold change in EC50 relative to NL4-3, ARP-11808: 2
[3]; IN 124/125 AA
  Fold change in EC50 relative to parental NL4-3, CAM2BBY (CRF02): 1
  Fold change in EC50 relative to parental NL4-3, E0836M4 (D): 1
  Fold change in EC50 relative to parental NL4-3, KER2008 (A): 0.5
  Fold change in EC50 relative to parental NL4-3, NP1525 (CRF01): 1
  Fold change in EC50 relative to parental NL4-3, NP1695 (CRF02): 2
  Fold change in EC50 relative to parental NL4-3, TZA125 (C): 0.3
[3]; IN 124/125 GA
  Fold change in EC50 relative to parental NL4-3, KSM4030 (A): 1
  Fold change in EC50 relative to parental NL4-3, vGA (C): 5
[3]; IN 124/125 NA
  Fold change in EC50 relative to parental NL4-3, 99ET14 (C): 1
  Fold change in EC50 relative to parental NL4-3, NP1538 (B): 3
  Fold change in EC50 relative to parental NL4-3, vNA_1 (B): 3
  Fold change in EC50 relative to parental NL4-3, vNA_2 (CRF02): 4
[3]; IN 124/125 NV
  Fold change in EC50 relative to parental NL4-3, vNV (B): 2
[3]; IN 124/125 SA
  Fold change in EC50 relative to parental NL4-3, vSA_1 (B): 2
  Fold change in EC50 relative to parental NL4-3, vSA_2 (CRF02): 2
[3]; IN 124/125 TA
  Fold change in EC50 relative to parental NL4-3, vTA_1 (B): 1
  Fold change in EC50 relative to parental NL4-3, vTA_2 (CRF02): 2
[4]; Human immunodeficiency virus 1, NL43, multiple-round infection, from dose response curves, read-out: EC90 NL4-3
  EC90: 23 ± 13 nM
[4]; Human immunodeficiency virus 1, NL43, multiple-round infection, mean ± SD, n > 5, read-out: EC50 NL4-3
  EC50: 15 ± 5 nM
[4]
  Selectivity index CC50/EC50 NL4-3: 5,200
[5]; recombinant NL4-3, IN 124/125 AA
  Fold change in EC50 relative to parental NL4-3, AA: 0.4
[5]; recombinant NL4-3, IN 124/125 AM
  Fold change in EC50 relative to parental NL4-3, AM: 0.2
[5]; recombinant NL4-3, IN 124/125 AT
  Fold change in EC50 relative to parental NL4-3, AT: 1
[5]; recombinant NL4-3, IN 124/125 AV
  Fold change in EC50 relative to parental NL4-3, AV: 0.5
[5]; recombinant NL4-3, IN 124/125 GA
  Fold change in EC50 relative to parental NL4-3, GA: 1
[5]; recombinant NL4-3, IN 124/125 GT
  Fold change in EC50 relative to parental NL4-3, GT: 2
[5]; recombinant NL4-3, IN 124/125 NA
  Fold change in EC50 relative to parental NL4-3, NA: 2
[5]; recombinant NL4-3, IN 124/125 NT
  Fold change in EC50 relative to parental NL4-3, NT: 1
[5]; recombinant NL4-3, IN 124/125 NV
  Fold change in EC50 relative to parental NL4-3, NV: 1
[5]; recombinant NL4-3, IN 124/125 SA
  Fold change in EC50 relative to parental NL4-3, SA: 1
[5]; recombinant NL4-3, IN 124/125 ST
  Fold change in EC50 relative to parental NL4-3, ST: 1
[5]; recombinant NL4-3, IN 124/125 TA
  Fold change in EC50 relative to parental NL4-3, TA: 1
[5]; recombinant NL4-3, IN 124/125 TM
  Fold change in EC50 relative to parental NL4-3, TM: 0.2
[5]; recombinant NL4-3, IN 124/125 TV
  Fold change in EC50 relative to parental NL4-3, TV: 1
[6]
  EC50 fold change compared to wild type NL4-3, A128T: 5
  EC50 fold change compared to wild type NL4-3, H171Q: 1
  EC50 fold change compared to wild type NL4-3, N222K: 3
  EC50 fold change compared to wild type NL4-3, T174I: 12
  EC50 fold change compared to wild type NL4-3, Y99H: 2
[7]; read-out: EC50 33913N (B)
  EC50: 5.8 ± 3.2 nM
[7]; read-out: EC50 HXB2 (B)
  EC50: 10 ± 6 nM
[7]; read-out: EC50 KER2008 (A)
  EC50: 19 ± 3 nM
[7]; read-out: EC50 NL4-3 (B)
  EC50: 15 ± 4 nM
[7]; read-out: EC50 NP1525 (CRF01_AE)
  EC50: 12 ± 3 nM
[7]; read-out: EC50 NP1538 (B)
  EC50: 41 ± 2 nM
[8]
  IC50: 82 ± 21 nM
[9]; concentration for 50% maximum activation of multimerization
  AC50: 22 ± 4 nM
[9]; maximum multimerization reached versus baseline
  IN multimerization Plateau: 400 ± 71%
[10]
  CC50: 78000 ± 12000 nM
[11]
  IC50: 62 ± 9 nM
[12]
  EC50: 6.3 ± 1.1 nM
[13]
  EC50 ratio (single/multiple-round infection): 260
[13]; Human immunodeficiency virus 1, NL43, MT4, read-out: EC50 in single-round infection
  EC50: 3900 ± 800 nM

## Cc1cc2nc(-c3ccc4c(c3)c(C3CCN(C5COC5)CC3)nn4C)sc2c(-c2ccc(Cl)cc2)c1[C@H](OC(C)(C)C)C(=O)O [GS-9822]
[14]
  toxicity: renal and urinary bladder toxicity

Source: PMC10353390, “Biological and Structural Analyses of New Potent Allosteric Inhibitors of HIV-1 Integrase” (Antimicrobial Agents and Chemotherapy, 2023)
